{
  "source": "patent US20250213735A1",
  "about": "“NEUROPEPTIDE Y1 RECEPTOR (NPY1R) TARGETED THERAPEUTICS AND USES THEREOF” (Radionetics Oncology, Inc., priority 2023, published 2025)",
  "data": [
    {"target": "hNPY1R (Homo sapiens (Human), UniProt P25929)", "sequence (P25929 whole entry)": "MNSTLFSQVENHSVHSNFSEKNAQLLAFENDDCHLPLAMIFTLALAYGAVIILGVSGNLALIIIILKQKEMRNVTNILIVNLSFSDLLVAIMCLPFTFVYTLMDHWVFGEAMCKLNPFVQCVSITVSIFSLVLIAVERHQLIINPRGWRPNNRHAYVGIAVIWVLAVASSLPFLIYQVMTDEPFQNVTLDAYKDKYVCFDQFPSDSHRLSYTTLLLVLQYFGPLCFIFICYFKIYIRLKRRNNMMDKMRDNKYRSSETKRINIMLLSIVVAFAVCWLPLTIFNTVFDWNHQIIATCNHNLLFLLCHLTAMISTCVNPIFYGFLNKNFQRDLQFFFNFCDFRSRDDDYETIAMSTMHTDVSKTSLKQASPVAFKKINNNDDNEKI", "test": "NPY1R binding assay (SK-N-MC membrane, [125I]-Peptide YY competition);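 also: bound radioligand separated by filtration over GF/C filter plates and counted, Ki obtained by non-linear regression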", "conditions": "crude SK-N-MC membranes endogenously expressing NPY1R; [125I]-Peptide YY (human) 0.05 nM; 120 min at room temperature; read-out: hNPY1R binding Ki", "units": {"Ki": "nM"}, "method": "Crude membrane fractions are prepared from SK-N-MC cells endogenously expressing the NPY1R receptor. The cells are grown to 85-100% confluence on standard tissue culture dishes in Eagle's Minimum Essential Medium supplemented with 10% dialyzed FBS. To prepare membranes, cells are scraped and collected in 1× Dulbecco's phosphate buffered saline and then pelleted at 1000 RPM's. The cell pellet is reconstituted in membrane preparation buffer (20 mM HEPES, 6 mM MgCl2 and 1 mM EGTA, protease inhibitor tablets, pH 7.4) and placed in a cell disruption vessel at 1000 PSI for 30 minutes on ice. The pressurized contents are then released and spun down at 1000 RPMs and the supernatant is collected and further centrifuged at 15,000 RPMs to pellet the membranes. The membrane pellet is resuspended in membrane preparation buffer, snap frozen and stored at −80° C. for later use.\nAssay contents are then filtered through unifilter GF/C microplates and washed with 9×400 μl of cold wash buffer (25 mM HEPES, 5 mM MgCl2, 1 mM CaCl2), 500 mM NaCl, 0.1% Tween-20, pH 7.4). Assay plates are read using a Top Count NXT and Ki values for compounds are determined using a GraphPad Prism 6 non-linear regression analysis.", "values": [
      {"compound": "N=C(N)NCCC[C@@H](NC(=O)C(c1ccccc1)N1CCC(C2CC2)CC1)C(=O)NCc1ccc(O)cc1", "note": "(stereo partly drawn) [compound 81, (2R)-2-(2-(4-cyclopropylpiperidin-1-yl)-2-phenylacetamido)-5-guanidino-N-(4-hydroxybenzyl)pentanamide]", "Ki": "100 to 1000"},
      {"compound": "CCC(=O)NCCNC(=O)/N=C(/N)NCCC[C@@H](NC(=O)[C@@H](c1ccc(CCCOCCOCCNC(=O)CN2CCN(CC(=O)O)CCN(CC(=O)O)CCN(CC(=O)O)CC2)cc1)N1Cc2ccccc2C1)C(=O)NCc1c(F)cc(O)cc1F", "note": "(single isomer, unassigned) [8B]", "Ki": "10 to 100"},
      {"compound": "N=C(N)NCCC[C@@H](NC(=O)C(c1ccccc1)N1CCC(C2CCCCC2)CC1)C(=O)NCc1ccc(O)cc1", "note": "(stereo partly drawn) [compound 83, (2R)-2-(2-(4-cyclohexylpiperidin-1-yl)-2-phenylacetamido)-5-guanidino-N-(4-hydroxybenzyl)pentanamide]", "Ki": "> 1000"}
    ]}
  ]
}
